Results taken from ChEMBL document CHEMBL1201862, “PubChem BioAssay data set” (2004).
Calls of active or inactive are those of the source.

Columns and labels:
[1] = target: FAD-linked sulfhydryl oxidase ALR (Homo sapiens, UniProt P55789); test: inhibitors of human ALR sulfhydryl oxidase, dose response, biochemical, H2O2 detection, luminescence, cherry-pick (AID 493248)
[2] = target: Heat shock protein HSP 90-alpha (Homo sapiens, UniProt P07900); test: Luminescence-based dose response biochemical high throughput screening assay for inhibitors of the Heat Shock Protein 90 (HSP90). [Related pubchem assays: 1831 (Summary AID.), 1846 (Confirmation screen.), 1789 (Primary screen.)]
[3] = HIV-1 Env-mediated cell fusion inhibitors, dose response, CCR5-tropic Env (AID 2279); type: functional
Protein RecA = target: T1, Protein RecA (Mycobacterium tuberculosis, UniProt P9WHJ3); test: Fluorescence Cell-Free Homogeneous Dose Retest to Identify Inhibitors of RecA-Intein Splicing Activity. [Related pubchem assays (depositor defined):AID2097, AID2223, AID489010, AID492950]; type: functional
T1 sequence (P9WHJ3 whole entry): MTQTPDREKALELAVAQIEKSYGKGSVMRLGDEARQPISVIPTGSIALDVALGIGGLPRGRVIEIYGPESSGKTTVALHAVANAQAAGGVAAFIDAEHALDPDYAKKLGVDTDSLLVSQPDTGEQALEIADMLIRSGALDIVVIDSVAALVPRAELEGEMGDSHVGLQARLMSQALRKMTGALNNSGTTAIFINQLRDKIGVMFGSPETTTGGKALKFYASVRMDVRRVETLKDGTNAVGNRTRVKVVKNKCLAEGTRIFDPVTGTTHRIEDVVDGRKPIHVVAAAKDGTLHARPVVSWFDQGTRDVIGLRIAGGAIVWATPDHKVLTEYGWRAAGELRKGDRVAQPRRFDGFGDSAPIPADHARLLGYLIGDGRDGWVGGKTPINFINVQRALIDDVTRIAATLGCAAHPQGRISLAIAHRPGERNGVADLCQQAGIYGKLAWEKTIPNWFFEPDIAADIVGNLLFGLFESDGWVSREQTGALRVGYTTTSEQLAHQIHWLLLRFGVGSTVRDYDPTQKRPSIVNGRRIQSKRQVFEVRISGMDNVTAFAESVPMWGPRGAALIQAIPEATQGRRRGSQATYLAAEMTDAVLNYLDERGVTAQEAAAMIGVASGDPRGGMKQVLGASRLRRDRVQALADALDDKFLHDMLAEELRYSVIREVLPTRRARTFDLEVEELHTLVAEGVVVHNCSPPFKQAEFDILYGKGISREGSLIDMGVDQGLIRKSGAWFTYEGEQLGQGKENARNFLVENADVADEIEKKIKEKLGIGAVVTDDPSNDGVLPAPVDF

[4] = target: T2, Replicative DNA helicase DnaB (Mycobacterium tuberculosis, UniProt P9WMR3); test: DnaB intein splicing inhibitors, dose response, biochemical, cell-free fluorescence (AID 449749); type: functional
T2 sequence (P9WMR3 whole entry): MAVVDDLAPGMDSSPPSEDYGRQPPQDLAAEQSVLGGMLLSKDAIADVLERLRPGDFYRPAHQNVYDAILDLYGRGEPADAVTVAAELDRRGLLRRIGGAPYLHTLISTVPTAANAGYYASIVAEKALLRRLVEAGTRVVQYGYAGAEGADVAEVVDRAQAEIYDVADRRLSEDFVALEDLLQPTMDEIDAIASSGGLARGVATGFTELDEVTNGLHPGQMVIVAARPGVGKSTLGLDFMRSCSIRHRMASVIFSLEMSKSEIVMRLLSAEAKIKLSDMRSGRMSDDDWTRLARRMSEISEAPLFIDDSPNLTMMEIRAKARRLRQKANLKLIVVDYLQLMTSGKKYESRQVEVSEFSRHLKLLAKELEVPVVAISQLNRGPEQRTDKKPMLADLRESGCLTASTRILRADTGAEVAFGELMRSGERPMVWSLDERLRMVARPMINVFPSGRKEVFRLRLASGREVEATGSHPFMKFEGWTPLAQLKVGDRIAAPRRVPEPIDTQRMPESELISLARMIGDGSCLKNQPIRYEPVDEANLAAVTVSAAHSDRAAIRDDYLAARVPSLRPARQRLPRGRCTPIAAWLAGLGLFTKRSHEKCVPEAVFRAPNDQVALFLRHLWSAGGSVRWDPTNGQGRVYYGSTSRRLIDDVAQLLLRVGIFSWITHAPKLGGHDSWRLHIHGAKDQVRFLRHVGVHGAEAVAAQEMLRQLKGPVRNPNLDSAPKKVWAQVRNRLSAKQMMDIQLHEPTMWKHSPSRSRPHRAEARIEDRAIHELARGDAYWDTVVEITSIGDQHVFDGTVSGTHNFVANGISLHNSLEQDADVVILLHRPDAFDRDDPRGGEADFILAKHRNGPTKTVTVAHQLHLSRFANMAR

[5] = target: Luciferin 4-monooxygenase (Photinus pyralis, UniProt P08659); test: firefly luciferase enzyme inhibitors, dose response, biochemical, luminescence (AID 1891)
Luciferin 4-monooxygenase, sequence (P08659 whole entry): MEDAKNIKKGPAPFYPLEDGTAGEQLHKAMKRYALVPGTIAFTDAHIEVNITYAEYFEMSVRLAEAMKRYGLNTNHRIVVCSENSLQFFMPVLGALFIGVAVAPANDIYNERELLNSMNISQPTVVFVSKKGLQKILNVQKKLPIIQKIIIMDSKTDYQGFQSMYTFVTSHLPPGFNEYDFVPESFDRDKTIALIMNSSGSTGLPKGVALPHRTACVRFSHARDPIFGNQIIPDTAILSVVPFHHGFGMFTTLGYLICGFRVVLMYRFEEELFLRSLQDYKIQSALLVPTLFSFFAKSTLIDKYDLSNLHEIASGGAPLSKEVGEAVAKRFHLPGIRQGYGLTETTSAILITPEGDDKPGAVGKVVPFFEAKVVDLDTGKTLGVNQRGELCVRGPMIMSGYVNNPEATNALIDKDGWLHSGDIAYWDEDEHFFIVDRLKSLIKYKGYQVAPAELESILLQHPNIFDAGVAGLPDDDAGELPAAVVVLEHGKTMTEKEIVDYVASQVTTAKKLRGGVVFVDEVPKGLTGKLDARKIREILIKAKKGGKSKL

[6] = Luminescent dose response cell-based high throughput screening assay for inhibitors of the Janus kinase 2 mutant JAK2V617F. [Related pubchem assays: 1446 (Primary screen.), 1521 (Confirmation assay.), 1486 (Counter screen.)]; type: functional
[7] = target: T3, Calpain-2 catalytic subunit (Sus scrofa, UniProt P43367); test: pig calpain II inhibitor potency, dose response, biochemical, fluorogenic peptide substrate (AID 1420); type: functional
T3 sequence (P43367 whole entry): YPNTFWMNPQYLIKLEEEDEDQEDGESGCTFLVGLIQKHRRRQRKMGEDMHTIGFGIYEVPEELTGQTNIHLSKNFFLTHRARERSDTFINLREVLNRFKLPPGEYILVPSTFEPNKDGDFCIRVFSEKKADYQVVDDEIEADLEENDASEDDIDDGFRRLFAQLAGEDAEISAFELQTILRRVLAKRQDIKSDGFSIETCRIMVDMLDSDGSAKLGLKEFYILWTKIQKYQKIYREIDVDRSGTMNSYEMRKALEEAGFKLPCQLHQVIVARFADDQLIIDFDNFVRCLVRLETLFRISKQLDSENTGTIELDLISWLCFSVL

[8] = Luminescence Cell-Based Dose Confirmation HTS to Identify Inhibitors of Platelet Dense Granule Release. [Related pubchem assays: 1663 (Primary HTS), 1678 (Summary of Project)]; type: functional
[9] = HeLa cell cytotoxicity, dose response, cytotoxicity control for MgcRacGAP inhibitor project (AID 624300); type: functional
[10] = Luminescence Cell-Based Dose Response HTS to Identify Inhibitors of 5'UTR Stem-Loop Driven Prion Protein mRNA Translation in H4 Neuroglioblastoma Cells. [Related pubchem assays: 1827 (Project Summary), 1813 (Primary HTS)]; type: functional
INS1 = test: beta cell apoptosis inhibitors, cytokine rescue, dose response, luminescence, retest (AID 449756); type: functional, cell-based; details: Rattus norvegicus;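 note: cell death triggered by IL-1 beta plus TNF-alpha plus IFN-gamma mixture; protective hits raise ATP signal compared with cytokine alone wells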
[11] = target: T4, Rac GTPase-activating protein 1 (Homo sapiens, UniProt Q9H0H5); test: MgcRacGAP GTPase-activating activity inhibitors, confirmation, biochemical, ADP Hunter fluorescence, primary and confirmatory (AID 624330); type: functional
T4 sequence (Q9H0H5 whole entry): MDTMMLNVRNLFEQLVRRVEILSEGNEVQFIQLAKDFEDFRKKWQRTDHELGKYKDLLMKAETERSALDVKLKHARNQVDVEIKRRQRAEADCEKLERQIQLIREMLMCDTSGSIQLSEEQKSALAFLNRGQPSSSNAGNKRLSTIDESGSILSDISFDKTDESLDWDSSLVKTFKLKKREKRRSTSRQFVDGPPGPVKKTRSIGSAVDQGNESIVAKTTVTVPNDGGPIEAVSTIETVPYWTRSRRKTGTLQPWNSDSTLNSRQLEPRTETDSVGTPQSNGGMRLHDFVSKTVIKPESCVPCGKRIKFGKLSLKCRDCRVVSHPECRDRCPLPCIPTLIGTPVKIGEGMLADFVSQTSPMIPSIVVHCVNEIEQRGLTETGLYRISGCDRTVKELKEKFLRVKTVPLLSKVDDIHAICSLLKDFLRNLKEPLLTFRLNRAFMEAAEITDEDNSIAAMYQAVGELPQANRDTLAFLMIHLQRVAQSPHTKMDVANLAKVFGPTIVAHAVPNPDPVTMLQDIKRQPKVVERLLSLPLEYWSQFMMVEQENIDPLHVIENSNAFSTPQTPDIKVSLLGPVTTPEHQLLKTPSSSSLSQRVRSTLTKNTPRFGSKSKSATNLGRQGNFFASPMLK

Cytochrome P450 3A4 = Cytochrome P450 3A4 (Homo sapiens, UniProt P08684); details: Potency;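 note: confirmatory qHTS run detecting inhibitors and substrates of CYP3A4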
Cytochrome P450 3A4, sequence (P08684 whole entry): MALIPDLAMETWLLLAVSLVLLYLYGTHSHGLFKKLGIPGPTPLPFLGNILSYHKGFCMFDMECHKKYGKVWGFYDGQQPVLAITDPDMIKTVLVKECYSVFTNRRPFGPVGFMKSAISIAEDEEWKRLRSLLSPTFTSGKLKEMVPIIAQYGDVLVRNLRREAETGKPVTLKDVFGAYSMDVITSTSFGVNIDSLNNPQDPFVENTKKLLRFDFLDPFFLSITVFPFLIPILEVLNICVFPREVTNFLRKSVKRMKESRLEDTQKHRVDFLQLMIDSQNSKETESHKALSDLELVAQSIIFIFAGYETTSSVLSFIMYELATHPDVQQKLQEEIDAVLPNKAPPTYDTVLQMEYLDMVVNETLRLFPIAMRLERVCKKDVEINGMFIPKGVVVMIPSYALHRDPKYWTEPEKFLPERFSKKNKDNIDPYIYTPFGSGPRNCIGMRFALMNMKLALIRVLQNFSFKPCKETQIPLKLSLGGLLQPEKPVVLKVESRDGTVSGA

Cytochrome P450 2C19 = Cytochrome P450 2C19 (Homo sapiens, UniProt P33261); test: qHTS Assay for Inhibitors and Substrates of Cytochrome P450 2C19. [Related pubchem assays: 410 ]; type: ADME; details: read-out: Potency
Cytochrome P450 2C19, sequence (P33261 whole entry): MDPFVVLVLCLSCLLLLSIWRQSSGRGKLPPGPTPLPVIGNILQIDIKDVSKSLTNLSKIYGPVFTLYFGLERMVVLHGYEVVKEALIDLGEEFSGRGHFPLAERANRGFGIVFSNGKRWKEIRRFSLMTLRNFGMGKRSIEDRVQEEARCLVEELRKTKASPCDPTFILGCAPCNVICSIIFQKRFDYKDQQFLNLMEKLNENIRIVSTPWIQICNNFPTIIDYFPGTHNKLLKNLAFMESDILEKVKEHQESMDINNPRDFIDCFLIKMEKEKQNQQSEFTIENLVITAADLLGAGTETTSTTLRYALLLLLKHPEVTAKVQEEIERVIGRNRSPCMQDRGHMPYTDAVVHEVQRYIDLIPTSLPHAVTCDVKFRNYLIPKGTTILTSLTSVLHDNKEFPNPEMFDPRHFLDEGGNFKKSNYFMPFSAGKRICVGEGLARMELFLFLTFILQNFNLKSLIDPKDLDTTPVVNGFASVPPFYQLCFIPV

Danio rerio = test: In Vivo Angiogenesis Dose-Response Confirmation. [Related pubchem assays: 732 (Assay preceding this confirmatory assay.)]; type: functional, organism-based
[12] = target: Voltage-gated inwardly rectifying potassium channel KCNH2 (Homo sapiens, UniProt Q12809); details: Potency;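 note: confirmatory quantitative high-throughput screen measuring inhibition of hERG channel activity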
Voltage-gated inwardly rectifying potassium channel KCNH2, sequence (Q12809 whole entry): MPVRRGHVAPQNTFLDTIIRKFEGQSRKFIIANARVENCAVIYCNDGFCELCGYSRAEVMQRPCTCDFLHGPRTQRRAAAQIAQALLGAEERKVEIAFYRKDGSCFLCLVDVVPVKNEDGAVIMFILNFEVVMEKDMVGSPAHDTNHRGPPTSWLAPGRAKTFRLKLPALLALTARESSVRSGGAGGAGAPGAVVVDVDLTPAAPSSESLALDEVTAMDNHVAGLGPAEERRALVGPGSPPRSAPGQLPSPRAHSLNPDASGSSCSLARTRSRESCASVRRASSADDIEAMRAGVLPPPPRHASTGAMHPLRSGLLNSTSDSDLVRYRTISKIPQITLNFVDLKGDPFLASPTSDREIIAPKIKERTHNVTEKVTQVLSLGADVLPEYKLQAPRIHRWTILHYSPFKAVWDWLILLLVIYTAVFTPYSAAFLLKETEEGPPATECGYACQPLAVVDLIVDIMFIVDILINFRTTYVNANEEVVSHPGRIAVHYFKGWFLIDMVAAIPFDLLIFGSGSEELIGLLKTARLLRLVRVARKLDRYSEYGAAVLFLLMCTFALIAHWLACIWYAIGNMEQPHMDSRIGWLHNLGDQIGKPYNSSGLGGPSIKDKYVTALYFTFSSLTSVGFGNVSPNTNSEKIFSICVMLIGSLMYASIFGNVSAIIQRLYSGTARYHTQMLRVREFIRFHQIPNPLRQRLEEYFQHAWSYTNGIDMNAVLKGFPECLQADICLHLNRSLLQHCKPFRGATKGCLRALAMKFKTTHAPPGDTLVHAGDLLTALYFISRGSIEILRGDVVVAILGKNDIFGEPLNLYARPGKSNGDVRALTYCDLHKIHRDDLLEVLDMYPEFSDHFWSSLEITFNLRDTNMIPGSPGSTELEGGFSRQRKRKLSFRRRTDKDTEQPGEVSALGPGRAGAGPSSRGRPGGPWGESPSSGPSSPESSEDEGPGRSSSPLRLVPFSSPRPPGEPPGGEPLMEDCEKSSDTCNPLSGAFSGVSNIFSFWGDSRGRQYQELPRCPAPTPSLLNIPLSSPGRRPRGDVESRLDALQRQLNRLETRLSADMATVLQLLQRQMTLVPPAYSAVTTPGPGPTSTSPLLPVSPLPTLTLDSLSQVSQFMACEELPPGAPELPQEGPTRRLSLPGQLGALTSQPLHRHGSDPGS

FAD-linked sulfhydryl oxidase ALR, sequence (P55789 whole entry): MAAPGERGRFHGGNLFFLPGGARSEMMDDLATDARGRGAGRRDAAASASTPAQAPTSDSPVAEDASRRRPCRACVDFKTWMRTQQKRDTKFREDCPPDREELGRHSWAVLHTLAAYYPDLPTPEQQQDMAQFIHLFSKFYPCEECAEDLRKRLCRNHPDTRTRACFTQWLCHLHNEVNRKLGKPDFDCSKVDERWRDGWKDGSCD

COc1cc(/C=N/Nc2ccc(Cl)c(C(=O)O)c2)ccc1OC(=O)c1ccccc1F
AC50 [1]: 5.62 µM (active)
IC50 [2]: 1.06 µM (active)
IC50 [3]: 4.45 µM (active)

O=C1/C(=N\c2ccc(O)cc2)C=C(O)c2ccccc21
EC50 (Protein RecA): 3.57 µM (active)
AC50 [4]: 3.88 µM (active)
EC50 [5]: 3.81 µM (active)
IC50 [6]: 2.02 µM (active)
IC50 [7]: 5.1 µM (not active)
EC50 [8]: 4.34 µM (active)
CC50 [9]: 100 µM (active)
EC50 [10]: > 120 µM (not active)
AC50 (INS1): 6.8 µM (active)
IC50 [11]: 23.7 µM (active)

COC(=O)NC(c1ccccc1)C(C(=O)OC)C(=O)OC (configuration not stated)
AC50 (Cytochrome P450 3A4): 3.16 µM (inconclusive)
AC50 (Cytochrome P450 2C19): 5.01 µM (inconclusive)

CN(C)c1ccc(/C=C2\C(=O)Nc3ccccc32)cc1
IC50 (Danio rerio): > 100 µM (not active)
AC50 [12]: 14.1 µM (inconclusive)
